Here are results for two compounds from patent US20240226078A9, “ENHANCEMENT OF MICROFRACTURE FOR REPAIRING CARTILAGE DEFECTS VIA WNT INHIBITION” (University of Pittsburgh - Of the Commonwealth System of …, priority 2021, published 2024).

For orientation: solubility means the dissolved amount per volume that the medium holds.

Data set [1] concerns human bone marrow-derived stem cell (hBMSC)-derived cartilage. Nature of the data set: COL1 expression and deposition in hBMSC-derived cartilage under Wnt inhibition (gene expression, immunofluorescence). Format: cell-based. From the text:
FIG. 1 illustrates a comparison of COL1 gene expression in Control and Wnt inhibition (Optimized) group. […] B) Collagen type 1 detection by immunofluorescence. Control group (i-iii); Optimized group (iv-vi). […] Bar −50 μm. […] In general, as used herein small molecule (therapeutic) compounds may, for example, have a molecular weight below 1.5 kDa or below 1.0 kDa.

Data set [2] relates to in vitro-expanded human chondrocytes. As to the kind of experiment: Western blot analysis of human chondrocytes treated for 3 days. Format: cell-based. To be noted: vs saline control (FIG. 2). From the text: FIG. 2 illustrates Western blot analysis for human chondrocytes treated with saline control (CON) and lorecivivint (LRC) for 3 days.
In that regards, FIG. 3 illustrates post-MFx events including: A) clot formation; B) stem cell migration, C) fibrogenesis, D) chondrogenesis and bone healing, and E) degeneration. To facilitate rapid clinical translation, it is desirable to repurpose clinically proven. human-safe Wnt inhibitors. Specifically, the Wnt inhibitor lorecivivint (SM04690), which suppresses CDC-like kinase 2 (CLK2) and dual-specificity tyrosine phosphorylation-regulated kinase 1A (DYRK1A) as well as Wnt/β-catenin signaling, has shown promising results for knee osteoarthritis as discussed above. […] The reparative outcome of Wnt- (for example, lorecivivint-) enhanced MFx provides an avenue to achieve long-term hyaline cartilage repair with a minimally invasive and cost-effective procedure, unattainable by current surgical procedures.
(Immunoblotting shows a protein as a band on a membrane.)

In data set [3] the test system is hBMSCs/blood clot construct. Nature of the data set: In vitro MFx model: chondrogenesis of hBMSCs/blood clot construct. Format: cell-based, human. As to conditions: expected. From the text:
The cause of post-Mfx fibrocartilage formation remains unclear. An in vitro model hereof may be used to simulate post-MFx tissue remodeling for further study and/or optimization of methodologies hereof Since harvesting human post-MFx clots is not feasible, as one of the initial steps toward human studies/clinical trials, one may simulate such a post-MFx clot by encapsulating stem cells such as hBMSCs within a clot derived from human peripheral blood as described herein. Optimization studies hereof may thus proceed via such a novel in vitro model which simulates post-MFx fibrocartilage formation (see FIG. 3) and assess treatment efficacy. As illustrated schematically in FIG. 4, to mimic the post-MFx clot, stem cells such as human bone marrow-derived stem cells (hBMSCs), the likely progenitor cells contributing to MFx repair, are encapsulated within clots derived from human peripheral blood. hBMSCs/blood clot may be differentiated using, for example, a chondroinductive factor such as insulin growth factor-1 (IGF-1), one of the major synovial fluid chondroinductive factors. The hBMSCs/blood clot may, for example, be induced to differentiate into fibrocartilage upon stimulation by IGF-1 (and/or other chondroinductive factor(s)), at physiological concentration. Application of Wnt inhibitors such lorecivivint in the model allows study of the augmentation of chondrogenesis and/or reduction of fibrosis. The hBMSCs/blood clot is thereby induced to differentiate into fibrocartilage upon such stimulation. Lorecivivint and/or other Wnt inhibitor are added to the clot to study the augmentation of chondrogenesis and reduction of fibrosis.
B. In vitro model—chondrogenesis of hBMSCs/blood clot construct. hBMSCs/blood clots may, for example, be cultured in differentiation medium containing either 0, 10, 20, 50, or 100 ng/ml IGF-1. Lorecivivint may be introduced using the concentrations described above
Preparation of hBMSCs/blood clot construct. […]

In another data set the test system is OA progression in rats. As to conditions: intraarticular, 0.3 μg dissolved in 50 μl saline (~12 nM); cited from earlier work.
The conditions of data set [4]: cited from earlier work.
For data set [5] the following is noted: single intraarticular injection; cited from earlier work.
The next data set has as its system hBMSC. As to conditions: lorecivivint alone, cited from earlier work.
Another data set relates to humans. To be noted: cited from earlier work.

In brackets after ≈: the same amount, converted by molar mass.

Turning to `Oc1nc(-c2ccc(C(F)(F)F)cc2)nc2c1CSCC2` [XAV939], the chondrogenesis result in data set [1] is given as “without impairing chondrogenesis”. Moreover, in data set [1] (compared to controls (FIG. 1A), p<0.05), the COL1 expression result is “significantly lowers”. Moreover, the COL1 protein deposition entry in data set [1] (immunofluorescence, compared to controls (FIG. 1B)) is “significantly lowers”.
Regarding `CC(C)CC(=O)Nc1cncc(-c2ccc3[nH]nc(-c4nc5cncc(-c6cccc(F)c6)c5[nH]4)c3c2)c1` [lorecivivint], the COL1 expression entry is given as “significantly reduced” in data set [2] and “minimal” in the data set on hBMSC (hBMSC chondrogenesis). Also, the COL1 immunostaining entry in data set [3] (treated constructs) is given as “absent or localized only to the marginal regions”. In data set [3] (vs untreated group), the “COL1, 3, FN, α-SMA expression levels” value is listed as “significantly lower”. In addition, the “COL2, AGG, SOX9, COMP, PRG4, and COL2/COL1 expression levels” value in data set [3] (vs untreated group) is “higher than untreated group”. In addition, in the data set with OA progression in rats, the OA progression result was “significantly ameliorates”. Also, the solubility in data set [4] was around 5 mM (≈ 2530 µg/mL). Besides, the “knee joint residence time” value in data set [5] is recorded as above 180 days. Also, in the data set with hBMSC, the “initiation of hBMSC chondrogenesis” value is “sufficient to initiate hBMSC chondrogenesis”. Also, the safety of injection result in the data set on humans was “safe”.
